In patent US20250368649A1, “TETRAHYDROPYRIDOPYRIMIDINE PAN-KRAS INHIBITORS” (Mirati Therapeutics, Inc., priority 2022, published 2025):

Key:
PSN1 cells = assay: Inhibition of KRas-mediated phosphorylation of ERK (Cisbio HTRF pERK), PSN1 cells; type: cell-based; settings: Homo sapiens, PSN1, 3 h, 3 hour compound incubation, Cisbio pERK HTRF
Method in brief: (§1)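 Day 1: 6,000 cells/well plated, RPMI + 10% FBS.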

HCT116 cells = assay: Inhibition of KRas-mediated phosphorylation of ERK (Cisbio HTRF pERK), HCT116 cells; type: cell-based; settings: Homo sapiens, HCT-116, single point at 100 nM, 3 hrs compound incubation
KRas G12V = KRas G12V (Homo sapiens, UniProt P01116, G12V); assay: biochemical; settings: Binding to KRas (IC50 nM) G12V, TR-FRET displacement, KRas G12V
KRas G12V, sequence (P01116 1-169 isoform P01116-2 G12V): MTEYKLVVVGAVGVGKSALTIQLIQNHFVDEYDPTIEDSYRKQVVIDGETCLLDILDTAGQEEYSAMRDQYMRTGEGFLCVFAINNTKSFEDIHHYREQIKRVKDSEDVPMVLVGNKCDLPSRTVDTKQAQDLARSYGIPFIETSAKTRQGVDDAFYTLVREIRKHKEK

H460 cells = assay: Inhibition of KRas-mediated phosphorylation of ERK (Cisbio HTRF pERK), H460 cells; type: cell-based; settings: Homo sapiens, NCI-H460, single point at 100 nM, 3 hrs compound incubation
MKN1 cells = assay: Inhibition of KRas-mediated phosphorylation of ERK (Cisbio HTRF pERK), MKN1 cells; type: cell-based; settings: Homo sapiens, MKN-1, 3 hour compound incubation, Cisbio pERK HTRF
Method in brief: as §1

A549 cells = assay: Inhibition of KRas-mediated phosphorylation of ERK (Cisbio HTRF pERK), A549 cells; type: cell-based; settings: Homo sapiens, single point at 100 nM, 3 hrs compound incubation
KRas G12R = KRas G12R (Homo sapiens, UniProt P01116, G12R); assay: biochemical; settings: Binding to KRas (IC50 nM) G12R, TR-FRET displacement, KRas G12R
KRas G12R, sequence (P01116 1-169 isoform P01116-2 G12R): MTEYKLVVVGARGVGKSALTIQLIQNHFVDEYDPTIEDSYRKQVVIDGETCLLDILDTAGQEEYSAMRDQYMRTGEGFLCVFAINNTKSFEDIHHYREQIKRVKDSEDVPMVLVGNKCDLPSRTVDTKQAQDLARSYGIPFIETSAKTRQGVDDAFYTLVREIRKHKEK

KRas G12D = KRas G12D (Homo sapiens, UniProt P01116, G12D); assay: biochemical; settings: Binding to KRas (IC50 nM) G12D, TR-FRET displacement, KRas G12D
KRas G12D, sequence (P01116 1-169 isoform P01116-2 G12D): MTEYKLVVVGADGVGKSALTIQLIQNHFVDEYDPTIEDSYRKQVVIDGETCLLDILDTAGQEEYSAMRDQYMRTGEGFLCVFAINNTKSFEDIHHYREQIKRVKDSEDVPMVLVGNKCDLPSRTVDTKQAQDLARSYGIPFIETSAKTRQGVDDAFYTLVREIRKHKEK

ASPC1 cells = assay: Inhibition of KRas-mediated phosphorylation of ERK (Cisbio HTRF pERK), ASPC1 cells; type: cell-based; settings: Homo sapiens, AsPC-1 cells; for IC50: ASPC1, 3 h, 3 hr compound incubation, Cisbio pERK HTRF
H358 cells = assay: Inhibition of KRas-mediated phosphorylation of ERK (Cisbio HTRF pERK), H358 cells; type: cell-based; settings: Homo sapiens, NCI-H358, single point at 100 nM, 3 hrs compound incubation
H727 cells = assay: Inhibition of KRas-mediated phosphorylation of ERK (Cisbio HTRF pERK), H727 cells; type: cell-based; settings: Homo sapiens; for IC50: NCI-H727, 3 h, 3 hr compound incubation, Cisbio pERK HTRF

CCc1c(F)ccc2cc(O)cc(N3CCc4c(nc(OC[C@@]56CCCN5C[C@H](F)C6)nc4N4CCCn5nc(P(C)(C)=O)cc5C4)C3)c12 [Example 350, (5-(7-(8-ethyl-7-fluoro-3-hydroxynaphthalen-1-yl)-2-(((2R,7aS)-2-fluorotetrahydro-1H-pyrrolizin-7a(5H)-yl)methoxy)-5,6,7,8-tetrahydropyrido[3,4-d]pyrimidin-4-yl)-5,6,7,8-tetrahydro-4H-pyrazolo[1,5-a][1,4]diazepin-2-yl)dimethylphosphine oxide]
IC50 (PSN1 cells): > 10000 nM | inhibition at 0.1 µM (HCT116 cells): 10% | IC50 (KRas G12V): 3 nM | inhibition at 0.1 µM (H460 cells): 44% | IC50 (MKN1 cells): 10.9 nM | inhibition at 0.1 µM (A549 cells): 23% | IC50 (KRas G12R): < 2 nM | IC50 (KRas G12D): < 2 nM | IC50 (ASPC1 cells): 105 nM | inhibition at 0.1 µM (H358 cells): 76% | IC50 (H727 cells): 178 nM

CCc1c(F)ccc2cc(O)cc(N3CCc4c(nc(OC[C@@]56CCCN5C[C@H](F)C6)nc4N4CCCn5nc(CNC(=O)NC)cc5C4)C3)c12 [Example 352, 1-((5-(7-(8-ethyl-7-fluoro-3-hydroxynaphthalen-1-yl)-2-(((2R,7aS)-2-fluorohexahydro-1H-pyrrolizin-7a-yl)methoxy)-5,6,7,8-tetrahydropyrido[3,4-d]pyrimidin-4-yl)-5,6,7,8-tetrahydro-4H-pyrazolo[1,5-a][1,4]diazepin-2-yl)methyl)-3-methylurea]
IC50 (PSN1 cells): > 10000 nM | inhibition at 0.1 µM (HCT116 cells): -2% | IC50 (KRas G12V): 2 nM | inhibition at 0.1 µM (H460 cells): -4% | IC50 (MKN1 cells): 1110 nM | inhibition at 0.1 µM (A549 cells): -15% | IC50 (KRas G12R): 2 nM | IC50 (KRas G12D): < 2 nM | IC50 (ASPC1 cells): 1820 nM | inhibition at 0.1 µM (H358 cells): -7% | IC50 (H727 cells): 1950 nM

CCc1c(F)ccc2cc(O)cc(N3CCc4c(nc(OC[C@@]56CCCN5C[C@H](F)C6)nc4N4CCCn5nc(CNC(C)=O)cc5C4)C3)c12 [Example 353, N-((5-(7-(8-ethyl-7-fluoro-3-hydroxynaphthalen-1-yl)-2-(((2R,7aS)-2-fluorohexahydro-1H-pyrrolizin-7a-yl)methoxy)-5,6,7,8-tetrahydropyrido[3,4-d]pyrimidin-4-yl)-5,6,7,8-tetrahydro-4H-pyrazolo[1,5-a][1,4]diazepin-2-yl)methyl)acetamide]
IC50 (PSN1 cells): > 10000 nM | inhibition at 0.1 µM (HCT116 cells): 6% | IC50 (KRas G12V): 3 nM | inhibition at 0.1 µM (H460 cells): -15% | IC50 (MKN1 cells): 516 nM | inhibition at 0.1 µM (A549 cells): 26% | IC50 (KRas G12R): 4 nM | IC50 (KRas G12D): < 2 nM | IC50 (ASPC1 cells): 400 nM | inhibition at 0.1 µM (H358 cells): -10% | IC50 (H727 cells): 561 nM

CCc1c(F)ccc2cc(O)cc(N3CCc4c(nc(OC[C@@]56CCCN5C[C@H](F)C6)nc4N4CCCn5nc(C(=O)N6[C@@H]7CNC[C@H]6C7)cc5C4)C3)c12 [Example 499, (1R,5S)-3,6-diazabicyclo[3.1.1]heptan-6-yl(5-(7-(8-ethyl-7-fluoro-3-hydroxynaphthalen-1-yl)-2-(((2R,7aS)-2-fluorohexahydro-1H-pyrrolizin-7a-yl)methoxy)-5,6,7,8-tetrahydropyrido[3,4-d]pyrimidin-4-yl)-5,6,7,8-tetrahydro-4H-pyrazolo[1,5-a][1,4]diazepin-2-yl)methanone]
IC50 (PSN1 cells): > 10000 nM | inhibition at 0.1 µM (HCT116 cells): 11% | IC50 (KRas G12V): < 2 nM | inhibition at 0.1 µM (H460 cells): 6% | IC50 (MKN1 cells): 186 nM | inhibition at 0.1 µM (A549 cells): 25% | IC50 (KRas G12R): < 2 nM | IC50 (KRas G12D): < 2 nM | IC50 (ASPC1 cells): 41 nM | inhibition at 0.1 µM (ASPC1 cells; ASPC1, single point at 100 nM, 3 hrs compound incubation): 47% | inhibition at 0.1 µM (H358 cells): 57% | IC50 (H727 cells): 168 nM | inhibition at 0.1 µM (H727 cells; NCI-H727, single point at 100 nM, 3 hrs compound incubation): 37%
